Reference: ChEMBL document CHEMBL1201862, “PubChem BioAssay data set” (2004)
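96-well plates; 48 h exposure; 5 concentrations. Endpoints by linear interpolation between flanking doses. Not reached: highest tested concentration assigned. Here, GI50 denotes the concentration required for 50% inhibition of growth.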 Activity calls are given as the source filed them. Rule as the data show it: active = GI50 up to about 1.1 µM and inactive = higher.

Tests used:
Experiment in all cases: NCI tumour cell line growth inhibition, 48 h
LOX IMVI = tested on: LOX IMVI
HCT-116 = tested on: HCT-116
NCI-H23 = tested on: NCI-H23
SK-MEL-5 = tested on: SK-MEL-5
OVCAR-3 = tested on: OVCAR-3
OVCAR-8 = tested on: OVCAR-8
RPMI-8226 = tested on: RPMI-8226
NCI-H460 = tested on: NCI-H460
NCI-H226 = tested on: NCI-H226
UACC-62 = tested on: UACC-62
CCRF-CEM = tested on: CCRF-CEM
SN12C = tested on: SN12C
RXF 393 = tested on: RXF 393
ACHN = tested on: ACHN
786-0 = tested on: 786-0
K562 = tested on: K562
KM12 = tested on: KM12

Measured: GI50

CCCCCCCCCC(=O)CC(=O)c1ccc(O)cc1O
inactive: LOX IMVI 17.5 µM | HCT-116 26.1 µM | NCI-H23 25.6 µM | SK-MEL-5 17.6 µM | OVCAR-3 22.6 µM | OVCAR-8 22.6 µM | RPMI-8226 19.5 µM | NCI-H460 31.8 µM | NCI-H226 24.3 µM | UACC-62 21.2 µM | CCRF-CEM 33.9 µM | SN12C 27.3 µM | RXF 393 28.4 µM | ACHN 28.6 µM | 786-0 33.5 µM | K562 29.1 µM | KM12 21.4 µM

CCOc1ccc(NC2=NC(=O)C(CC(=O)Nc3ccccc3[N+](=O)[O-])S2)cc1 (centres undefined)
inactive: LOX IMVI > 100 µM | HCT-116 > 100 µM | NCI-H23 > 100 µM | SK-MEL-5 > 100 µM | OVCAR-3 > 100 µM | OVCAR-8 > 100 µM | RPMI-8226 > 100 µM | NCI-H460 > 100 µM | NCI-H226 > 100 µM | UACC-62 94 µM | CCRF-CEM > 100 µM | SN12C > 100 µM | RXF 393 > 100 µM | ACHN > 100 µM | 786-0 > 100 µM | K562 > 100 µM

CCNC1C2(CCCCC2)NC(=O)C12CCCCC2 (centres undefined)
inactive: HCT-116 > 100 µM | NCI-H23 > 100 µM | SK-MEL-5 > 100 µM | OVCAR-3 > 100 µM | OVCAR-8 > 100 µM | RPMI-8226 > 100 µM | NCI-H460 > 100 µM | NCI-H226 > 100 µM | UACC-62 > 100 µM | CCRF-CEM > 100 µM | RXF 393 > 100 µM | ACHN > 100 µM | 786-0 > 100 µM | K562 > 100 µM | KM12 > 100 µM

Nc1nc(N)c(-c2ccccc2)c(CCC(=O)Nc2ccc(Cl)cc2)n1
inactive: HCT-116 > 100 µM | NCI-H23 > 100 µM | SK-MEL-5 > 100 µM | OVCAR-3 > 100 µM | OVCAR-8 > 100 µM | RPMI-8226 > 100 µM | NCI-H460 > 100 µM | NCI-H226 > 100 µM | UACC-62 > 100 µM | CCRF-CEM > 100 µM | SN12C > 100 µM | ACHN > 100 µM | 786-0 > 100 µM | K562 76.2 µM | KM12 > 100 µM

O=C(NCCNCCO)N/N=C/c1ccccc1
inactive: LOX IMVI > 100 µM | HCT-116 > 100 µM | NCI-H23 > 100 µM | SK-MEL-5 > 100 µM | OVCAR-3 > 100 µM | OVCAR-8 > 100 µM | NCI-H460 > 100 µM | NCI-H226 > 100 µM | UACC-62 > 100 µM | CCRF-CEM > 100 µM | SN12C > 100 µM | RXF 393 > 100 µM | ACHN > 100 µM | 786-0 > 100 µM | K562 > 100 µM | KM12 > 100 µM

O=c1cccccc1NCCNc1cccccc1=O
inactive: LOX IMVI > 100 µM | HCT-116 > 100 µM | NCI-H23 > 100 µM | OVCAR-3 > 100 µM | OVCAR-8 > 100 µM | RPMI-8226 > 100 µM | NCI-H460 > 100 µM | NCI-H226 > 100 µM | UACC-62 > 100 µM | CCRF-CEM > 100 µM | SN12C 13.6 µM | RXF 393 68.2 µM | ACHN > 100 µM | 786-0 > 100 µM | K562 > 100 µM | KM12 > 100 µM

O=C(O)C1C2CCC(O2)C1C(=O)N1CCCCC1 (centres undefined)
inactive: LOX IMVI 10.2 µM | HCT-116 10.2 µM | NCI-H23 11.7 µM | SK-MEL-5 13.8 µM | OVCAR-3 1.93 µM | OVCAR-8 4.61 µM | RPMI-8226 3.26 µM | NCI-H460 12.8 µM | NCI-H226 5.09 µM | UACC-62 5.26 µM | SN12C 2.57 µM | RXF 393 2.2 µM | ACHN 4.54 µM | 786-0 4.16 µM | KM12 16.2 µM

Cc1c(O)c(O)cc[n+]1C1OC(CO)C(O)C1O (centres undefined)
inactive: LOX IMVI > 100 µM | HCT-116 > 100 µM | NCI-H23 > 100 µM | OVCAR-8 > 100 µM | RPMI-8226 > 100 µM | NCI-H460 > 100 µM | NCI-H226 > 100 µM | UACC-62 > 100 µM | CCRF-CEM > 100 µM | SN12C > 100 µM | RXF 393 > 100 µM | ACHN > 100 µM | 786-0 > 100 µM | K562 > 100 µM | KM12 > 100 µM

COC(=O)C1=C(C)N(NC(=O)c2cccc(Cl)c2)C(C)(O)C12CCOC2=O (centres undefined)
inactive: LOX IMVI > 100 µM | HCT-116 > 100 µM | SK-MEL-5 > 100 µM | OVCAR-3 > 100 µM | OVCAR-8 > 100 µM | RPMI-8226 > 100 µM | NCI-H460 > 100 µM | NCI-H226 > 100 µM | UACC-62 > 100 µM | SN12C > 100 µM | ACHN > 100 µM | 786-0 > 100 µM | K562 > 100 µM | KM12 > 100 µM
